Here are results for ten compounds from patent US10316017B2, “COT modulators and methods of use thereof” (Gilead Sciences, Inc., priority 2015, dated 2019).

Experiment [1] concerns TNFα production in LPS-stimulated human monocytes. Description: Cot Monocyte TNFα Cell Based Assay. The note with it: Homo sapiens, Monocyte, read-out: EC50 TNF. In a few lines:
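Cells at 5,000/well were pretreated with compound for 1 h at 37 °C (0.5% DMSO final), then stimulated with 50 pg/ml LPS for 4 h at 37 °C. Supernatant TNFα was measured by two-antibody TR-FRET after overnight room-temperature incubation; values are percent of control between unstimulated and stimulated wells.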

Experiment [2] concerns the target T1, human Cot catalytic domain (30-397 amino acids) (Homo sapiens, UniProt P41279).
T1 construct: Purified recombinant human Cot catalytic domain (30-397 amino acids) was purchased from Cama Biosciences; purchased Cama Biosciences (so in the source)
Description: High Throughput Cot Biochemical Assay (KinEASE TR-FRET). The following applies: read-out: IC50 HTRF. The gist of the method:
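Reaction of 5 nM recombinant human Cot catalytic domain (aa 30-397) with 1 μM STK3 peptide (XL665-labeled) and 400 μM ATP in 10 mM MOPS pH 7.0, 10 mM MgOAc, 1 mM DTT, 0.5 mg/mL BSA, 0.1% DMSO. Phosphopeptide detected by TR-FRET with europium anti-phospho antibody.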
Background: Time-resolved FRET reads energy transfer from a long-lived donor to a nearby acceptor.

Where [3] appears, read: TNFα in LPS-stimulated human monocytes.
Where [4] appears, read: Cot KinEASE TR-FRET (HTRF) biochemical assay, 400 μM ATP.
[5] abbreviates: Cot biochemical HTRF (KinEASE TR-FRET) assay.
Where [6] appears, read: LPS-stimulated human monocytes, TNFα TR-FRET.
Setting [7] is: Cot KinEASE TR-FRET, 400 μM ATP.

Molecules are shown by their SMILES. Like-named read-outs stand apart in the source and are kept apart here.

T1 sequence (P41279 30-397): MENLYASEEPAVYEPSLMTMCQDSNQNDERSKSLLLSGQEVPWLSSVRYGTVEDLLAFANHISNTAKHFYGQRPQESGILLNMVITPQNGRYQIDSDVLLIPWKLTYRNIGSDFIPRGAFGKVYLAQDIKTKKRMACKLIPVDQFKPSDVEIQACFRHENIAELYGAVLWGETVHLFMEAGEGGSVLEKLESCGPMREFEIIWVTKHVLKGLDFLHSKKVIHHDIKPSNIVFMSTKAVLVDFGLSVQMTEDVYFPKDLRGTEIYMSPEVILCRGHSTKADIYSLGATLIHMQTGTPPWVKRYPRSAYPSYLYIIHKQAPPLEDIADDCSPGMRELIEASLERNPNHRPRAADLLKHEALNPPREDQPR

On to `CC[C@@H](Nc1c(C#N)cnc2c(Cl)cc(N[C@@H](c3ccc(F)cc3)c3cn(C(C)C)nn3)cc12)c1ccc(C)cc1` [Example 365, 8-chloro-6-(((S)-(4-fluorophenyl)(1-isopropyl-1H-1,2,3-triazol-4-yl)methyl)amino)-4-(((R)-1-(p-tolyl)propyl)amino)quinoline-3-carbonitrile], for which the EC50 in experiment [1] (setting [3]) was 9330 nM. The IC50 in experiment [2] (setting [4]) worked out at 868 nM.

`CC(C)(C)N1CCC(n2cc([C@@H](Nc3cc(Cl)c4ncc(C#N)c(Nc5cccc(F)c5)c4c3)c3ccc(Cl)cc3)nn2)CC1` [Example 767, (S)-6-(((1-(1-(tert-butyl)piperidin-4-yl)-1H-1,2,3-triazol-4-yl)(4-chlorophenyl)methyl)amino)-8-chloro-4-((3-fluorophenyl)amino)quinoline-3-carbonitrile]: the EC50 in experiment [1] (setting [3]) came out at 1270 nM. In experiment [2] (setting [5]), the IC50 came to 48 nM.

Consider `CC(C)(C)CNc1c(C#N)cnc2c(Cl)cc(N[C@@H](c3ccc(F)cc3)c3cn(CC(F)F)nn3)cc12` [Example 1002, (S)-8-chloro-6-(((1-(2,2-difluoroethyl)-1H-1,2,3-triazol-4-yl) (4-fluorophenyl)methyl)amino)-4-(neopentylamino) quinoline-3-carbonitrile], for which the EC50 in experiment [1] (setting [6]) turned out to be 202 nM. Besides, in experiment [2] (setting [7]), the IC50 came out at 14 nM.

For the compound `Cc1c(-c2cncn2C)cccc1[C@H](Nc1cc(Cl)c2ncc(C#N)c(NCC(C)(C)C)c2c1)c1cn(C2(C(F)F)CC2)nn1` [Example 1122, (S)-8-chloro-6-(((1-(1-(difluoromethyl)cyclopropyl)-1H-1,2,3-triazol-4-yl)(2-methyl-3-(1-methyl-1H-imidazol-5-yl)phenyl)methyl)amino)-4-(neopentylamino)quinoline-3-carbonitrile], in experiment [1] (setting [6]), the EC50 worked out at 47 nM. Besides, the IC50 in experiment [2] (setting [7]) is 2 nM.

As to `CC(C)(C)N1CCC(n2cc([C@@H](Nc3cc(Cl)c4ncc(C#N)c(Nc5cccc(Cl)c5Cl)c4c3)c3ccccc3)nn2)CC1` [Example 526, (S)-6-(((1-(1-(tert-butyl)piperidin-4-yl)-1H-1,2,3-triazol-4-yl)(phenyl)methyl)amino)-8-chloro-4-((2,3-dichlorophenyl)amino) quinoline-3-carbonitrile], in experiment [1] (setting [3]), the EC50 is 503 nM. Further, in experiment [2] (setting [5]), the IC50 amounted to 24 nM.

With `CC(C)(C)CNc1c(C#N)cnc2c(Cl)cc(N[C@H](c3cn(C4CC4)nn3)c3ccccc3-c3ccccc3)cc12` [Example 97, (S)-6-(([1,1'-biphenyl]-2-yl(1-cyclopropyl-1H-1,2,3-triazol-4-yl)methyl)amino)-8-chloro-4-(neopentylamino) quinoline-3-carbonitrile], in experiment [1] (setting [3]), the EC50 was more than 1000 nM. For the same compound, the IC50 in experiment [2] (setting [4]) was 985 nM.

Turning to `COc1ccc(Nc2c(C#N)cnc3c(Cl)cc(N[C@@H](c4ccccc4)c4cn(C(C)(C)C)nn4)cc23)cn1` [Example 468, (S)-6-(((1-(tert-butyl)-1H-1,2,3-triazol-4-yl)(phenyl)methyl)amino)-8-chloro-4-((6-methoxypyridin-3-yl)amino)quinoline-3-carbonitrile], the EC50 in experiment [1] (setting [3]) amounted to 3150 nM. Moreover, the IC50 in experiment [2] (setting [5]) was determined as 173 nM.

On to `[2H]C(Nc1cc(Cl)c2ncc(C#N)c(NC(=O)C(C)(C)C)c2c1)(c1ccc(F)cc1)c1cn(C2CC2)nn1` (centres unmarked) [Compound 33], for which, in experiment [1] (setting [3]), the EC50 was more than 10000 nM. Further, in experiment [2] (setting [4]), the IC50 was determined as 1620 nM.

`N#Cc1cnc2c(Cl)cc(NC(c3ccc(F)cc3)c3ccon3)cc2c1Nc1ccc(F)c(Cl)c1` (centres unmarked) [Compound 7]: in experiment [1] (setting [3]), the EC50 came to 1520 nM. For the same compound, the IC50 in experiment [2] (setting [4]) amounted to 187 nM.

On to `[2H][C@](Nc1cc(Cl)c2ncc(C#N)c(N[C@H](C)c3ccccc3)c2c1)(c1ccc(F)cc1)c1cn(C2CC2)nn1` [Example 227, 8-chloro-6-(((S)-(1-cyclopropyl-1H-1,2,3-triazol-4-yl)(4-fluorophenyl)methyl-d)amino)-4-(((R)-1-phenylethyl)amino) quinoline-3-carbonitrile], for which the EC50 in experiment [1] (setting [3]) came to 426 nM. Moreover, in experiment [2] (setting [4]), the IC50 was found to be 11 nM.

By EC50 is commonly meant the midpoint of the concentration-response curve. By IC50 is commonly meant the concentration at which inhibition is half-maximal.
